Results published in patent publication US9707267B2, “Beta-turn peptidomimetic cyclic compounds for treating dry eye” (Mimetogen Pharmaceuticals, Inc., priority 2008, dated 2017).
Several values for one entry are separate records, joined by “and”; a condition that tells them apart may be missing. Identical values can stand only once.

Tests used:
[1] = system: Scopolamine Induced Rat Dry Eye Model; test: Scopolamine induced rat dry eye model, Schirmer test (Example 5); type: in vivo; settings: ± SD
cultured goblet cells = test: Goblet cell proliferation, Alamar Blue (Example 2); type: cell-based, rat; settings: serum-free media
Experimental: The culturing of conjunctival goblet cells from explant cultures was as previously described in Shatos, M. et al., “Isolation, Characterization, and Propagation of Rat Conjunctival Goblet Cells In Vitro,” IOVS 42:1455-1464 (2001), the entire content of which is incorporated herein by reference. The tissue was finely minced and individual pieces were anchored onto scored 6-well cultures dishes in 0.5 mL of complete RPMI-1640 (supplemented with 10% FBS, 2 mM glutamine and 100 μg/mL penicillin-streptomycin) and incubated at 37° C. in a humidified 5% CO2-atmosphere. Explant cultures were refed every 2 days. Within a few days, goblet cells migrated from the pieces and began to proliferate. After approximately one week, the tissue plugs were removed and the goblet cells were allowed to grow to confluence. […]
Cell proliferation was measured using Alamar Blue from Biosource (Invitrogen Corporation, Carlsbad, Calif.) according to the manufacture's protocol. […] After 24 hours, 10% Alamar Blue was added for 6 hours and the absorbance was read at 570 and 600 nm on a Benchmark Plus (Biorad). The percentage of Alamar Blue reduction was calculated according to the manufacture's instructions. […]

[2] = system: Scopolamine Induced Rat Dry Eye Model; test: Scopolamine induced rat dry eye model, mucin in tear fluid washings, ELLA (Example 5); type: in vivo; settings: for Tear Mucin: ± SD
Experimental: (§1) Dry eye was induced using scopolamine hydrobromide (Sigma-Aldrich, St. Louis, Mo.), which was continuously and systemically delivered to the animals via an osmotic pump (2ML4 Alzet®; CedarLane, Burlington, Ontario) filled with scopolamine and implanted subcutaneously in the mid dorsal area between the scapulae. Scopolamine was delivered for a twenty-eight day period at 12.5 mg/day, which translated to 30.0±1.5 mg/kg via osmotic pump.
(§2) Treatments for G2-G6 continued daily for seventeen days (up to an including day twenty-one). Thereafter, treatments were terminated but the study continued for another week. During treatment, each animal was anesthetized in an isoflurane chamber. Once asleep, each animal received a 5 μL topical instillation of test article into the lower conjunctival sac of both eyes using a calibrated micropipette. If a clinical endpoint was also being tested, the test article was topically instilled at the end of the testing.
Tear fluid washings were collected from all six groups of rats on day 12 (after 7 daily treatments), day 19 (after 14 daily treatments) and day 28 (after treatment was stopped for 7 days) after instillation of 5 μL sterile saline in the lower conjunctival sac of the anaesthetized animal. The lids were blinked gently to mix the tear film with the saline. The diluted tear fluid was collected with a 5 μL volume glass capillary tube (Drummond Scientific Co, Broomhall, Pa.) by capillary action from the tear meniscus in the lateral canthus. Approximately 4-5 μL were routinely collected. In very dry eyes, a second 5 μL aliquot of saline was instilled before collection.
The concentrations of mucin glycoprotein in the diluted tear fluid washings were determined by an enzyme-linked lectin assay (ELLA). A sample containing 3 μg total protein was diluted to 100 μL in carbonate buffer pH 9.2 and transferred to a 96-well polystyrene microtiter plate (Corning Life Sciences #2592, Fisher Scientific, Nepean, Ontario). A dilution series of bovine submaxillary mucin (Sigma, St. Louis, Mo.) was included on each plate as the standard. The plates were coated by evaporation at 37° C. overnight. After, the plates were washed three times with wash buffer [PBS containing 0.3% BSA, 0.05% Tween-20] then blocked for nonspecific binding with PBS containing 3% BSA and 0.05% Tween-20 at 37° C. for one hour. The wells were rinsed three times in wash buffer, and then incubated in 2 μg/mL biotinylated UEA-1 diluted in wash buffer (Vector Labs, Burlingame, Calif.) at 37° C. for one hour. The wells were rinsed three times in wash buffer, and then incubated in 1 μg/mL HRP-conjugated neutravidin diluted in wash buffer (Pierce, Rockford, Ill.) at 37° C. for one hour. After the wells were rinsed three times in wash buffer the color development was performed with TMB (Promega, Madison, Wis.) and stopped with 0.5N Sulfuric acid. The concentration of mucin in the tear fluid washings was calculated as the ng mucin divided by the volume of tear fluid washing in μL that gave 3 μg total protein.

[3] = system: Scopolamine Induced Rat Dry Eye Model; test: Scopolamine induced rat dry eye model, corneal staining (Example 5); type: in vivo; settings: for Corneal Staining: score 0 to 4, ± SD
Experimental: as §1, §2
Immediately following TBUT assessment, the clinical signs of corneal dryness were evaluated by fluorescein staining of the cornea and was tested on day 13 (after 8 daily treatments), day 21 (after 16 daily treatments), and day 28 (after treatment was stopped for 7 days). A drop of a 0.2% sodium fluorescein solution made up in sterile saline was instilled in the upper conjunctival sac of the anaesthetized animal. The cornea was thereafter observed under blue light using a Portable Slit Lamp ophthalmoscope with blue cobalt filter (Reichert Ophthalmic Instruments, Depew, N.Y.) two to three minutes after fluorescein instillation. For each animal, the punctate fluorescein-stained area of the cornea was recorded in a masked fashion. The score of this test was graded from 0 to 4, where 0 is equal to no staining, 1 is less than 25% surface staining, 2 is 25-50% surface staining, 3 is 50-75% surface staining, and 4 is greater than 75% surface staining.

[4] = 0.4% topical 1× daily Days 5-21, Day 28 (7 days after treatment stopped)
[5] = 1% dose vs untreated and saline control groups
[6] = 1.0% topical 1× daily Days 5-21, Day 28 (7 days after treatment stopped)
[7] = 2.5% topical 1× daily Days 5-21, Day 28 (7 days after treatment stopped)
[8] = 0.00053% topical 1× daily Days 5-21, Day 28 (7 days after treatment stopped)

NCCCC[C@@H]1NC(=O)[C@H](CCC(=O)O)NC(=O)c2cc([N+](=O)[O-])ccc2OCCC(C(=O)NCC(=O)O)NC1=O (stereo partly shown) [Compound D3]
Schirmer's Test ([1]; 0.4% group, Day 2, before treatment start (day 5)): 9.6 ± 3.0 mm
Schirmer's Test ([1]; 0.4% group, Day −1, presurgical, before treatment start (day 5)): 11.9 ± 4.4 mm and 11.9 ± 4.2 mm
Schirmer's Test ([1]; 0.4% topical 1× daily Days 5-21, Day 5 (test before first instillation)): 7.9 ± 3.2 mm
Schirmer's Test ([1]; 0.4% topical 1× daily Days 5-21, Day 7): 7.9 ± 1.6 mm
Schirmer's Test ([1]; 0.4% topical 1× daily Days 5-21, Day 14): 8.6 ± 3.0 mm
Schirmer's Test ([1]; 0.4% topical 1× daily Days 5-21, Day 20): 7.2 ± 1.8 mm
Schirmer's Test ([1]; 0.4% topical 1× daily Days 5-21, Day 29 (after treatment stopped)): 9.4 ± 2.0 mm
Schirmer's Test ([1]; 1.0% group, Day 2, before treatment start (day 5)): 9.8 ± 4.0 mm and 9.8 ± 3.8 mm
Schirmer's Test ([1]; 1.0% group, Day −1, presurgical, before treatment start (day 5)): 11.3 ± 4.5 mm and 11.3 ± 3.0 mm
Schirmer's Test ([1]; 1.0% topical 1× daily Days 5-21, Day 5 (test before first instillation)): 7.9 ± 2.3 mm
Schirmer's Test ([1]; 1.0% topical 1× daily Days 5-21, Day 7): 9.5 ± 4.2 mm
Schirmer's Test ([1]; 1.0% topical 1× daily Days 5-21, Day 14): 7.3 ± 2.3 mm
Schirmer's Test ([1]; 1.0% topical 1× daily Days 5-21, Day 29 (after treatment stopped)): 9.0 ± 2.9 mm
Schirmer's Test ([1]; 2.5% group, Day 2, before treatment start (day 5)): 9.8 ± 2.4 mm
Schirmer's Test ([1]; 2.5% group, Day −1, presurgical, before treatment start (day 5)): 11.5 ± 2.2 mm and 11.5 ± 1.8 mm
Schirmer's Test ([1]; 2.5% topical 1× daily Days 5-21, Day 5 (test before first instillation)): 9.6 ± 1.8 mm
Schirmer's Test ([1]; 2.5% topical 1× daily Days 5-21, Day 20): 9.1 ± 2.3 mm
Schirmer's Test ([1]; 2.5% topical 1× daily Days 5-21, Day 29 (after treatment stopped)): 7.7 ± 1.6 mm
goblet cell proliferation (in words) (cultured goblet cells; concentrations up to 100 μM, by day four): did not stimulate goblet cell proliferation
Tear Mucin ([2]; 0.4% topical 1× daily Days 5-21, Day 12): 2.7 ± 2.2 ng/µL
Tear Mucin ([2]; 0.4% topical 1× daily Days 5-21, Day 19): 6.8 ± 3.2 ng/µL
Tear Mucin [2, 4]: 4.4 ± 3.8 ng/µL
changes in mucin production at Day 28 as compared to Day 12 (in words) [2, 5]: statistically significantly increased mucin production
Tear Mucin ([2]; 1.0% topical 1× daily Days 5-21, Day 12): 3.3 ng/µL and 3.3 ± 1.9 ng/µL
Tear Mucin ([2]; 1.0% topical 1× daily Days 5-21, Day 19): 9.1 ng/µL and 9.1 ± 5.1 ng/µL
Tear Mucin [2, 6]: 6.8 ng/µL and 6.8 ± 4.9 ng/µL
Tear Mucin ([2]; 2.5% topical 1× daily Days 5-21, Day 12): 1.6 ± 0.9 ng/µL
Tear Mucin ([2]; 2.5% topical 1× daily Days 5-21, Day 19): 6.5 ± 2.4 ng/µL
Tear Mucin [2, 7]: 3.0 ± 1.1 ng/µL
Corneal Staining ([3]; 0.4% topical 1× daily Days 5-21, Day 13): 2.7 ± 0.4 Score
Corneal Staining ([3]; 0.4% topical 1× daily Days 5-21, Day 21): 2.1 ± 0.4 Score
Corneal Staining [3, 4]: 2.4 ± 0.7 Score
changes in corneal staining at Day 28 as compared to Day 13 (in words) [3, 5]: statistically significantly improved corneal staining
Corneal Staining ([3]; 1.0% topical 1× daily Days 5-21, Day 13): 2.8 ± 0.6 Score
Corneal Staining ([3]; 1.0% topical 1× daily Days 5-21, Day 21): 2.3 ± 0.6 Score
Corneal Staining [3, 6]: 1.3±0.3 Score
Corneal Staining ([3]; 2.5% topical 1× daily Days 5-21, Day 13): 2.1 ± 0.7 Score
Corneal Staining ([3]; 2.5% topical 1× daily Days 5-21, Day 21): 2.1 ± 1.0 Score
Corneal Staining [3, 7]: 2.6 ± 0.4 Score

NGF: nerve growth factor (recombinant human), positive control
Schirmer's Test ([1]; 0.00053% group, Day 2, before treatment start (day 5)): 9.9 ± 4.9 mm and 9.9 ± 4.8 mm
Schirmer's Test ([1]; 0.00053% group, Day −1, presurgical, before treatment start (day 5)): 11.2 ± 3.7 mm and 11.2 ± 3.2 mm
Schirmer's Test ([1]; 0.00053% topical 1× daily Days 5-21, Day 20): 7.1 ± 2.4 mm
goblet cell proliferation (in words) (cultured goblet cells; NGF 10 pM to 10 nM, up to day four): did not increase proliferation
Tear Mucin ([2]; 0.00053% topical 1× daily Days 5-21, Day 12): 3.0 ± 2.3 ng/µL
Tear Mucin ([2]; 0.00053% topical 1× daily Days 5-21, Day 19): 6.8 ± 3.8 ng/µL
Tear Mucin [2, 8]: 2.4 ± 2.0 ng/µL
Corneal Staining ([3]; 0.00053% topical 1× daily Days 5-21, Day 13): 2.6 ± 0.5 Score
Corneal Staining ([3]; 0.00053% topical 1× daily Days 5-21, Day 21): 2.3 ± 0.6 Score
Corneal Staining [3, 8]: 2.2 ± 0.3 Score
